Measurements published in US6677308B1, “Meta-substituted phenylene sulphonamide derivatives” (G. D. Searle & Co., priority 1996, dated 2004).
Where a name gives a salt, the structure may show the parent alone. Read-outs that look alike come from different tables or passages of the source.

Legend:
[1] = target: T1, Human vitronectin receptor (αvβ3) (Homo sapiens, UniProt P05106+P06756); assay: Vitronectin adhesion assay (solid phase receptor assay, competition with biotinylated vitronectin); assay type: binding
T1 construct: Human vitronectin receptor (αvβ3) was purified from human placenta as previously described; from tissue; host or cells: human placenta
Experimental: Vitronectin Adhesion Assay
Human vitronectin receptor (αvβ3) was purified from human placenta as previously described [Pytela et al., Methods in Enzymology, 144:475-489 (1987)]. Human vitronectin was purified from fresh frozen plasma as previously described [Yatohgo et al., Cell Structure and Function, 13:281-292 (1988)]. Biotinylated human vitronectin was prepared by coupling NHS-biotin from Pierce Chemical Company (Rockford, Ill.) to purified vitronectin as previously described [Charo et al., J. Biol. Chem., 266(3):1415-1421 (1991)]. Assay buffer, OPD substrate tablets, and RIA grade BSA were obtained from Sigma (St. Louis, Mo.). Anti-biotin antibody was obtained from Calbiochem (La Jolla, Calif.). Linbro microtiter plates were obtained from Flow Labs (McLean, Va.). ADP reagent was obtained from Sigma (St. Louis, Mo.).
(§1) Solid Phase Receptor Assays
This assay was essentially the same as previously reported [Niiya et al., Blood, 70:475-483 (1987)]. The purified human vitronectin receptor (αvβ3) was diluted from stock solutions to 1.0 μg/mL in Tris-buffered saline containing 1.0 mM Ca^++, Mg^++, and Mn^++, pH 7.4 (TBS^+++). The diluted receptor was immediately transferred to Linbro microtiter plates at 100 μL/well (100 ng receptor/well). The plates were sealed and incubated overnight at 4° C. to allow the receptor to bind to the wells. All remaining steps were at room temperature. The assay plates were emptied and 200 μL of 1% RIA grade BSA in TBS^+++ (TBS^+++/BSA) were added to block exposed plastic surfaces. Following a 2 hour incubation, the assay plates were washed with TBS^+++ using a 96 well plate washer. Logarithmic serial dilution of the test compound and controls were made starting at a stock concentration of 2 mM and using 2 nM biotinylated vitronectin in TBS^+++/BSA as the diluent. This premixing of labeled ligand with test (or control) ligand, and subsequent transfer of 50 μL aliquots to the assay plate was carried out with a CETUS Propette robot; the final concentration of the labeled ligand was 1 nM and the highest concentration of test compound was 1.0×10^−4 M. The competition occurred for two hours after which all wells were washed with a plate washer as before. Affinity purified horseradish peroxidase labeled goat anti-biotin antibody was diluted 1:3000 in TBS^+++/BSA and 125 μL were added to each well. After 30 minutes, the plates were washed and incubated with OPD/H2O2 substrate in 100 mM/L Citrate buffer, pH 5.0. The plate was read with a microtiter plate reader at a wavelength of 450 nm and when the maximum-binding control wells reached an absorbance of about 1.0, the final A450 were recorded for analysis. The data were analyzed using a macro written for use with the EXCEL™ spreadsheet program. The mean, standard deviation, and %CV were determined for duplicate concentrations. The mean A450 values were normalized to the mean of four maximum-binding controls (no competitor added) (B-MAX). The normalized values were subjected to a four parameter curve fit algorithm [Rodbard et al., Int.

[2] = target: T2, Human fibrinogen receptor (αIIbβ3) (Homo sapiens, UniProt P05106+P08514); assay: Purified IIb/IIIa receptor assay (solid phase receptor assay, competition with biotinylated vitronectin); assay type: binding; settings: purified human αIIbβ3 from platelets; 1 nM biotinylated vitronectin; highest concentration 1.0×10^−4 M
T2 construct: Human fibrinogen receptor (αIIbβ3) was purified from outdated platelets; from tissue; host or cells: outdated (human) platelets
Text: Purified IIb/IIIa Receptor Assay
Human fibrinogen receptor (αIIbβ3) was purified from outdated platelets. (Pytela, R., Pierschbacher, M. D., Argraves, S., Suzuki, S., and Rouslahti, E. “Arginine-Glycine-Aspartic acid adhesion receptors”, Methods in Enzymology 144(1987):475-489.) Human vitronectin was purified from fresh frozen plasma as described in Yatohgo, T., Izumi, M., Kashiwagi, H., and Hayashi, M., “Novel purification of vitronectin from human plasma by heparin affinity chromatography,” Cell Structure and Function 13(1988):281-292. Biotinylated human vitronectin was prepared by coupling NHS-biotin from Pierce Chemical Company (Rockford, Ill.) to purified vitronectin as previously described. (Charo, I. F., Nannizzi, L., Phillips, D. R., Hsu, M. A., Scarborough, R. M., “Inhibition of fibrinogen binding to GP IIb/IIIa by a GP IIIa peptide”, J. Biol. Chem. 266(3)(1991): 1415-1421.) Assay buffer, OPD substrate tablets, and RIA grade BSA were obtained from Sigma (St. Louis, Mo.). Anti-biotin antibody was obtained from Calbiochem (La Jolla, Calif.). Linbro microtiter plates were obtained from Flow Labs (McLean, Va.). ADP reagent was obtained from Sigma (St. Louis, Mo.).
as §1
This assay is essentially the same reported in Niiya, K., Hodson, E., Bader, R., Byers-Ward, V. Koziol, J. A., Plow, E. F. and Ruggeri, Z. M., “Increased surface expression of the membrane glycoprotein IIb/IIIa complex induced by platelet activation: Relationships to the binding of fibrinogen and platelet aggregation”, Blood 70(1987):475-483. The purified human fibrinogen receptor (αIIbβ3) was diluted from stock solutions to 1.0 μg/mL in Tris-buffered saline containing 1.0 mM Ca^++, Mg^++, and Mn^++, pH 7.4 (TBS^+++). The diluted receptor was immediately transferred to Linbro microtiter plates at 100 μL/well (100 ng receptor/well). The plates were sealed and incubated overnight at 4° C. to allow the receptor to bind to the wells. All remaining steps were at room temperature. The assay plates were emptied and 200 μL of 1% RIA grade BSA in TBS^+++ (TBS^+++/BSA) were added to block exposed plastic surfaces. Following a 2 hour incubation, the assay plates were washed with TBS^+++ using a 96 well plate washer. Logarithmic serial dilution of the test compound and controls were made starting at a stock concentration of 2 mM and using 2 nM biotinylated vitronectin in TBS^+++/BSA as the diluent. This premixing of labeled ligand with test (or control) ligand, and subsequent transfer of 50 μL aliquots to the assay plate was carried out with a CETUS Propette robot; the final concentration of the labeled ligand was 1 nM and the highest concentration of test compound was 1.0×10^−4 M. The competition occurred for two hours after which all wells were washed with a plate washer as before. Affinity purified horseradish peroxidase labeled goat anti-biotin antibody was diluted 1:3000 in TBS^+++/BSA and 125 μL were added to each well. After 30 minutes, the plates were washed and incubated with […] substrate in 100 mM/L citrate buffer, pH 5.0. The plate was read with a microtiter plate reader at a wavelength of 450 nm and when the maximum-binding control wells reached an absorbance of about 1.0, the final A450 were recorded for analysis. The data were analyzed using a macro written for use with the EXCEL™ spreadsheet program. The mean, standard deviation, and %CV were determined for duplicate concentrations. The mean A450 values were normalized to the mean of four maximum-binding controls (no competitor added) (B-MAX). The normalized values were subjected to a four parameter curve fit algorithm, [Robard et al., Int.

[3] = tested on: Human platelet rich plasma; assay: Human platelet rich plasma assay (ADP induced platelet aggregation); assay type: cell-based; settings: concentration of half-maximal inhibition, read-out: Human PRP
Experimental: Human Platelet Rich Plasma Assays
Healthy aspirin free donors were selected from a pool of volunteers. The harvesting of platelet rich plasma and subsequent ADP induced platelet aggregation assays were performed as described in Zucker, M. B., “Platelet Aggregation Measured by the Photometric Method”, Methods in Enzymology 169(1989):117-133. Standard venipuncture techniques using a butterfly allowed the withdrawal of 45 mL of whole blood into a 60 mL syringe containing 5 mL of 3.8% trisodium citrate. Following thorough mixing in the syringe, the anti-coagulated whole blood was transferred to a 50 mL conical polyethylene tube. The blood was centrifuged at room temperature for 12 minutes at 200×g to sediment non-platelet cells. Platelet rich plasma was removed to a polyethylene tube and stored at room temperature until used. Platelet poor plasma was obtained from a second centrifugation of the remaining blood at 2000×g for 15 minutes. Platelet counts are typically 300,000 to 500,000 per microliter. Platelet rich plasma (0.45 mL) was aliquoted into siliconized cuvettes and stirred (1100 rpm) at 37° C. for 1 minute prior to adding 50 uL of pre-diluted test compound. After 1 minute of mixing, aggregation was initiated by the addition of 50 uL of 200 uM ADP. Aggregation was recorded for 3 minutes in a Payton dual channel aggregometer (Payton Scientific, Buffalo, N.Y.). […]

[4] = purified human αvβ3 from placenta, 1 nM biotinylated vitronectin, highest concentration 1.0×10^−4 M, read-out: AvB3 IC50

IC50 [1, 4] [nM] | IC50 [2] [nM] | Molecule | IC50 ([1]; positive control included on each plate, read-out: IC50 (αvβ3 antagonist, positive control)) [nM] | IC50 [3] [nM]
15 | 418 | C#C[C@H](CC(=O)O)NS(=O)(=O)c1cccc(NC(=O)c2cccc(NC3=NCCN3)c2)c1 [Example 7, 3S-[[[3-[[[3-[(4,5-Dihydro-1H-imidazol-2-yl)amino]-phenyl]carbonyl]amino]phenyl]sulfonyl]amino]-4-pentynoic Acid, Trifluoroacetate Salt] |  | 
659 | 987 | N=C(N)Nc1cccc(C(=O)Nc2cccc(S(=O)(=O)NC(CC(=O)O)c3cc(Cl)cc(Cl)c3)c2)c1 (racemic) [Example 4, (±) β-[[[3-[[[3-[(Aminoiminomethyl)amino]phenyl]-carbonyl]amino]phenyl]sulfonyl]amino]-3,5-dichlorobenzene Propanoic Acid, Trifluoroacetate Salt] |  | 
5.34 | 11.6 | C=CC(CC(=O)O)NS(=O)(=O)c1cccc(NC(=O)c2cccc(NC(=N)N)c2)c1 (racemic) [Example 3, (±) 3-[[[3-[[[3-[(Aminoiminomethyl)amino]phenyl]-carbonyl]amino]phenyl]sulfonyl]amino]-4-pentenoic Acid, Trifluoroacetate Salt] |  | 
183 | 3920 | N=C(N)Nc1cccc(C(=O)Nc2cccc(S(=O)(=O)N3CCCCC3CC(=O)O)c2)c1 (stereo not drawn) [Example 6, 1-[[3-[[[3-[(Aminoiminomethyl)amino]phenyl]carbonyl]-amino]phenyl]sulfonyl]piperidine-2-acetic Acid, Trifluoroacetate Salt] |  | 
 |  | β-[[2-[[5-[(aminoiminomethyl)amino]-1-oxopentyl]amino]-1-oxoethyl]amino]-3-pyridinepropanoic acid [reference compound] | 3 to 10 | 
4.66 | 24.7 | N=C(N)Nc1cccc(C(=O)Nc2cccc(S(=O)(=O)NC(CC(=O)O)c3cccnc3)c2)c1 (stereo not drawn) [Example 5, β-[[[3-[[[3-[(Aminoiminomethyl)amino]phenyl]-carbonyl]amino]phenyl]sulfonyl]amino]pyridine-3-propanoic Acid, tris(Trifluoroacetate) Salt] |  | 
29.3 | 93.6 | N=C(N)Nc1cccc(S(=O)(=O)Nc2cccc(S(=O)(=O)NC(CC(=O)O)c3ccccc3)c2)c1 (stereo not drawn) [Example 9, β-[[[3-[[[3-[(Aminoiminomethyl)amino]phenyl]-sulfonyl]amino]phenyl]sulfonyl]amino]phenyl-propanoic Acid, Trifluoroacetate Salt] |  | 
11.3 | 38.2 | C#CC(CC(=O)O)NS(=O)(=O)c1cccc(NC(=O)c2cccc(NC(=N)N)c2)c1 (stereo not drawn) [Example 8, 3-[[[3-[[[3-[(Aminoiminomethyl)amino]phenyl]-carbonyl]amino]phenyl]sulfonyl]amino]-4-pentynoic Acid, Trifluoroacetate Salt] |  | 

Molecule | IC50 [1, 4] [nM] | IC50 [2] [nM] | IC50 ([1]; positive control included on each plate, read-out: IC50 (αvβ3 antagonist, positive control)) [nM] | IC50 [3] [nM]
N=C(N)Nc1cccc(C(=O)Nc2cccc(S(=O)(=O)NC(CC(=O)O)c3ccccc3)c2)c1 (stereo not drawn) [Example 1, β-[[[3-[[[3-[(Aminoiminomethyl)amino]phenyl]carbonyl]amino]phenyl]sulfonyl]amino]-benzenepropanoic Acid, Trifluoroacetate Salt] | 1.66 | 11.3 |  | > 200000
